“And” between values parts separate entries of the source, which are not always exact repeats. Equal values may be shown once.
How the values were obtained:
[1] = tested on: MYC Reporter (Luc)-HCT-116 cells; test: MYC-Luc reporter assay; type: cell-based
Protocol: The MYC Reporter (Luc)-HCT-116 Cell line, Catalog #60520, was bought from BPS Bioscience. MYC reporter (Luc)-HCT-116 cells were seeded in a white, clear bottom, 96-well microplate at 25,000 cells/well, in McCoy’s 5A media supplemented with 10% FBS and 1% penicillin/streptomycin. The plate was incubated at 37 °C with 5% CO2 overnight. The next day, cells were treated with 0.0 µM, 0.1 µM, 1.0 µM, 2.5 µM, 5.0 µM, 10 µM, or 20 µM TCH-165, in Opti-MEM supplemented with 0.5% FBS, 1% non-essential amino acids, 1 mM Sodium Pyruvate and 1% penicillin/streptomycin. The plate was incubated at 37 °C with 5% CO2 for 16 h. Firefly luminescence was measured using the One-Step Luciferase Assay System from BPS Biosciences.

[2] = tested on: primary human MM cells of newly diagnosed patient; test: Primary cell viability, CellTiter-Glo, 72 h
Description: White blood cells (WBCs) were separated from red blood cells by the Ficoll density gradient. Multiple myeloma cells were then isolated from WBCs using human CD138 affinity magnetic beads (Miltenyi Biotec; cat#130-093-062; Gaithersburg, MD, USA) following the manufacturer’s protocol. Cells were cryopreserved in 10% DMSO in FBS. Revived cells were maintained in an RPMI medium with 10% FBS for 10 days prior to treatment. […] Cells were equilibrated to RT and CellTiter-Glo (Promega; Madison, WI, USA) solution (100 μL) was added and incubated with shaking for 10 min at RT. The assay plate was then allowed to equilibrate for 5 min at RT and luminescent readings were taken on a SpectraMax® M5. Data are presented as a percentage of the vehicle control for each experimental condition, after background subtraction. Error bars represent SD for triplicate wells.

[3] = tested on: RPMI-8226 subcutaneous xenograft; test: RPMI-8226 xenograft tumor model

EC50 ([1]; Homo sapiens, stably transfected HCT-116 cells, 16 h, 95% CI 2.46–2.95, read-out: EC50 of decrease of MYC-mediated luciferase transcription): 2.57 µM
loss of body weight ([3]; SCID mice, 100 mg/kg bid oral): < 10%
SMILES: CCOC(=O)[C@]1(c2ccccc2)N=C(c2ccc(OC)cc2)N(Cc2ccccc2)[C@@H]1c1ccc(NCc2ccccc2)cc1 [TCH-165]
MYC-mediated luciferase transcription with addition of bortezomib ([1]; TCH-165 3 μM after bortezomib 10 nM, 2 h pre-incubation): restored luciferase transcription back to the levels of the vehicle control
CC50 [2]: 1 µM
reduction of tumor growth compared to vehicle control ([3]; 100 mg/kg bid oral gavage, after 42 days, p < 0.05): 75.71% and 76%
average tumor volume ([3]; after 42 days, TCH-165 100 mg/kg bid oral, bortezomib 0.375 reduced to 0.09 mg/kg i.v. 3X per week): 304.43 (±49.50) mm^3
